Test results published in patent US11026426B2, “Oxadiazole and phenol derivatives as antibacterial and/or herbicidal agents” (NORTHERN ILLINOIS RESEARCH FOUNDATION, priority 2017, dated 2021).
Read-outs that look alike come from different tables or passages of the source.

What was measured:
Ec IspD [1] = molecular target: T1, Ec IspD (Escherichia coli, UniProt Q46893); test: Thermal shift (DSF) screening against Ec IspD; assay type: binding; conditions: for change in the observed melting temperature of Ec IspD: MicroSource Spectrum screening
T1 sequence (Q46893 whole entry): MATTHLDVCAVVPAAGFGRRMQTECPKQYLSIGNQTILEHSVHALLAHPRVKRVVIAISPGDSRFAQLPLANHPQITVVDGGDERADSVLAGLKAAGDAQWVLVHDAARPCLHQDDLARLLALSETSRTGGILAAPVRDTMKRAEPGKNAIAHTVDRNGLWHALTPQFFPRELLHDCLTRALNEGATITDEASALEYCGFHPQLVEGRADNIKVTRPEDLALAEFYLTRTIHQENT
Protocol: The library based screening technique in conjunction with the thermal shift assay was implemented to evaluate compounds from Spectrum collection.
All DSF experiments were performed in 50 mM phosphate buffer at pH 7.4, 150 mM NaCl, 1×SYPRO orange, 2% DMSO and 200 to 1000 nM of the enzyme with a total volume of 25 μL. Final enzyme concentrations used were […] for Ec IspD and 0.5 μM for Bt IspD. Samples were measured on a Bio-Rad iQ5 Real-Time PCR (Bio-Rad Life Sciences) using a temperature range of 25 to 95° C. at a rate of 1° C. per minute with the fluorescence measured every 0.5° C. every 10 seconds with wavelengths of 530 and 570 nm used for excitation and emission, respectively. The melting temperature (Tm value) was determined from the first derivative of the graph of relative fluorescence units vs. temperature.

Ec IspD [2] = molecular target: T1, Ec IspD; test: EnzChek enzymatic activity assay Ec IspD; assay type: biochemical
Protocol: The EnzChek® assay has a phosphate sensitivity of 2-150 μM. To ensure there is no interference caused by assay components, three standards were performed on each plate: buffer only, without CTP and without MEP.
Here, for the plate-based assay, IspD converts MEP to CDP-ME pyrophosphate, which in turn is converted to inorganic phosphate (Pi) with the enzyme inorganic pyrophosphatase. The EnzChek® Phosphate Assay kit follows the formation of the inorganic phosphate through a reaction with 2-amino-6-mercapto-7-methylpurine riboside (MESG) and the enzyme purine nucleoside phosphorylase (PNP). This reaction converts the MESG into ribose 1-phosphate and 2-amino-6-mercapto-7-methylpurine resulting in a spectrophotometric shift in a maximum absorbance from 330 nm to 360 nm. Reactions were performed in 50 μL final volumes in 96-well clear flat bottom plates, and were initiated by addition of 50 ng purified Ec IspD. Absorbance at 360 nm was measured every 31 seconds for 20 minutes on a Synergy 2 Multi-Mode plate reader (BioTek), preheated to 37° C. Final concentration of reagents was as follows: 1×EnzChek® reaction buffer (50 mM Tris pH 7.5, 1 mM magnesium chloride (MgCl2), 100 μM sodium azide (NaN3)), 0.2 mM MESG, 1 U/ml PNP, 1 U/mL inorganic Pyrophosphatase (NEB), 200 mM CMP (Sigma), and 50 μM MEP (Echelon).

LeIspE = LeIspE (Solanum lycopersicum, UniProt P93841); test: University of Hamburg photometric enzymatic inhibition assay LeIspE; assay type: biochemical, Lycopersicon esculentum; conditions: read-out: LeIspE IC50
LeIspE, sequence (P93841 89-401): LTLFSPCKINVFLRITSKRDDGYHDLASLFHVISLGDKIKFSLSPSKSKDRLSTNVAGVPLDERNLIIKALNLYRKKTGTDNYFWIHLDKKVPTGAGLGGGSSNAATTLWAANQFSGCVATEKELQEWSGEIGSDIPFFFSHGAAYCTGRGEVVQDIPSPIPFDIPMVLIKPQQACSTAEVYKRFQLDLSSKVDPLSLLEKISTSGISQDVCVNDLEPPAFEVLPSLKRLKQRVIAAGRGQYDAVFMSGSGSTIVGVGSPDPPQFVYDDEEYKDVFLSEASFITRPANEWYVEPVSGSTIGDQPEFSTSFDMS
In short: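 Photometric coupled assay with pyruvate kinase/lactate dehydrogenase following NADH (460 μM). Mix: 100 mM Tris-HCl pH 8.0, 10 mM MgCl2, 1 mM DTT, 2.5 mM phosphoenolpyruvate, 2 mM ATP, 1 mM 4-diphosphocytidyl-2-C-methylerythritol, 1.1% DMSO, 2.4 mU IspE; incubated at 27° C.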

Micrococcus luteus = test: Antibacterial preliminary screening ML; assay type: cell-based; conditions: score 0-3; also: key: 0 represents no inhibition; 3 is comparable to commercial antibiotic control
P. falciparum IspD = P. falciparum IspD (Plasmodium falciparum, UniProt Q8I273); test: IspD assay (Washington University, EnzCheck phosphate) PfIspD; assay type: biochemical
P. falciparum IspD, sequence (Q8I273 entry or part of it): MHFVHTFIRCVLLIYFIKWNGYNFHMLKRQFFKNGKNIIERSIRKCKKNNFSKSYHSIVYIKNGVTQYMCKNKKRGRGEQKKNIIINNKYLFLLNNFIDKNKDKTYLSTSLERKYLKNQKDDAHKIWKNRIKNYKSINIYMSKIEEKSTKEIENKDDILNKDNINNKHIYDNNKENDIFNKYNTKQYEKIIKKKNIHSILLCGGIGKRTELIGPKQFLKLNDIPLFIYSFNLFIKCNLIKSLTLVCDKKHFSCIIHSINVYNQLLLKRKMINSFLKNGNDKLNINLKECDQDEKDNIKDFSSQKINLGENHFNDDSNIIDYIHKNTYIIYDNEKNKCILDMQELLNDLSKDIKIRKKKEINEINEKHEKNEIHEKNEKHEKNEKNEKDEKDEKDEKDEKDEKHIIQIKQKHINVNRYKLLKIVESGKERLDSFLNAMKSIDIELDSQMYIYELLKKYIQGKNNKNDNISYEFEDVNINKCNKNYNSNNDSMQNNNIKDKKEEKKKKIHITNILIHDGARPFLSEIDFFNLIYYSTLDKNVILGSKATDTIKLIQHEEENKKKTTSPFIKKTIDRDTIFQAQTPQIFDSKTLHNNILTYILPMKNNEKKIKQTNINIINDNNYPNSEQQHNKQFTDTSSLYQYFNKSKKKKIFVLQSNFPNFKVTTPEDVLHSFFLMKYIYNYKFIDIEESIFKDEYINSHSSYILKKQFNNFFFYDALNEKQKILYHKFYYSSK

[3] = molecular target: T2, Mycobacterium tuberculosis IspD (MtIspD) (Mycobacterium tuberculosis, UniProt P9WKG9); test: Thermal shift assay against MtIspD; assay type: binding
T2 sequence (P9WKG9 1-231): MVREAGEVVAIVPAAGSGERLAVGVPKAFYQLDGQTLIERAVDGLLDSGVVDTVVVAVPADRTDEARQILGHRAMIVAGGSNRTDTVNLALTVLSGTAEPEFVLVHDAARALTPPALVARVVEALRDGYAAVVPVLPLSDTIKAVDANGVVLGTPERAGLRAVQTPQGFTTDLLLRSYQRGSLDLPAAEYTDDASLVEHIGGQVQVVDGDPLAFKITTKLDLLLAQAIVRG

Klebsiella pneumonia = test: Antibacterial preliminary screening KP; assay type: cell-based; conditions: score 0-3; also: key: 0 represents no inhibition; 3 is comparable to commercial antibiotic control
E. coli IspD = E. coli IspD (Escherichia coli, UniProt Q46893); test: IspD assay (Washington University, EnzCheck phosphate) EcIspD; assay type: biochemical; conditions: up to 100 μM; bar graph at 12.5 and 100 μM
E. coli IspD, sequence (Q46893 whole entry): as the sequence (Q46893 whole entry) above
Protocol: Compounds were tested against IspD from Escherichia coli and Plasmodium falciparum. The assay measured activity through monitoring phosphate levels released by IspD enzyme over time using conditions published previously. The assay utilized the EnzCheck phosphate assay kit to quantify phosphate released by IspD. Reactions were done in a 96-well plate with each well containing a final volume of 50 μL. Concentrations of reagents were as follows: 100 mM NaCl, 25 mM Tris at pH 7.0, 7.5 mM MgCl2, 1 mM dithiothreitol, 1 U/mL purine nucleoside phosphorylase, and 0.1 U/mL yeast inorganic pyrophosphatase, 50 μM CTP, 500 μM MEP, 0.1% DMSO, and 0.2 mM 2-Amino-6-mercapto-7-methyl puring riboside. Reactions with EclspD used 2 nM EclspD and reactions with PfIspD used 50 nM PfIspD. Reactions involved pre-warming the enzyme and buffers to 37° C. with different inhibitor concentrations followed by the addition of the purified MEP substrate. Absorbance was measured at 360 nm over time and values were used to create regression analysis curves from three trials and values were converted to (μM MEP)(μM enzyme)^−1s^−1 using a standard phosphate curve. These values were then used to identify percent activity compared to enzyme activity without the inhibitor. Results are indicated.

Corynebacterium xerosis = test: Antibacterial preliminary screening CX; assay type: cell-based; conditions: score 0-3; also: key: 0 represents no inhibition; 3 is comparable to commercial antibiotic control
[4] = molecular target: Lycopersicon esculentum IspE (LeIspE) (Solanum lycopersicum, UniProt P93841); test: Thermal shift assay against LeIspE; assay type: binding
Lycopersicon esculentum IspE (LeIspE), sequence (P93841 89-401): as the sequence (P93841 89-401) above

Bacillus cereus = test: Antibacterial preliminary screening BC; assay type: cell-based; conditions: score 0-3; also: key: 0 represents no inhibition; 3 is comparable to commercial antibiotic control
AtIspF = AtIspF (Arabidopsis thaliana, UniProt Q9CAK8); test: University of Hamburg photometric enzymatic inhibition assay AtIspF; assay type: biochemical; conditions: read-out: AtIspF IC50
AtIspF, sequence (Q9CAK8 53-231): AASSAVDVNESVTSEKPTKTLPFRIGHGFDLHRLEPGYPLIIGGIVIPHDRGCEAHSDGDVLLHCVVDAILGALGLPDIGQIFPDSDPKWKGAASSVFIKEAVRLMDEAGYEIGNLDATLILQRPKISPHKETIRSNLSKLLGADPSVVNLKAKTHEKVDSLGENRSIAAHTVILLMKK
In short: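 Coupled photometric assay (CMP kinase/pyruvate kinase/lactate dehydrogenase, NADH consumption) with 2.4 mU AtIspF and 1 mM 4-diphosphocytidyl-2C-methylerythritol 2-phosphate, 2 mM ATP, in 100 mM Tris-HCl pH 8.0, 10 mM MgCl2, 1.1% DMSO. Monitored at 27 °C.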

[5] = system: Burkholderia thailandensis; assay type: cell-based; conditions: preliminary screening, score 0-3
Escherichia coli = test: Antibacterial preliminary screening EC; assay type: cell-based; conditions: score 0-3; also: key: 0 represents no inhibition; 3 is comparable to commercial antibiotic control
AtIspD = AtIspD (Arabidopsis thaliana, UniProt P69834); test: University of Hamburg photometric enzymatic inhibition assay AtIspD; assay type: biochemical; conditions: read-out: AtIspD IC50
AtIspD, sequence (P69834 62-302): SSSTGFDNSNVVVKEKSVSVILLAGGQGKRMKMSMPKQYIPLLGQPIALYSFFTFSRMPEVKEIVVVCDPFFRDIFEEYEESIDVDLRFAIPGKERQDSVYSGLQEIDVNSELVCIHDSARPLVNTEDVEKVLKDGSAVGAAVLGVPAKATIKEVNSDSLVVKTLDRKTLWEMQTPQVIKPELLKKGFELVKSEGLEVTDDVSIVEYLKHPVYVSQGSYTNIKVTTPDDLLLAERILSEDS
In short: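 Coupled photometric assay: 2.4 mU AtIspD with 1 mM (2R,3S)-2,3-dihydroxy-4-oxopentyl phosphate, 2.1 mM CTP, excess IspE (0.4 U), ATP, pyruvate kinase/lactate dehydrogenase and 460 μM NADH. Run in 100 mM Tris-HCl pH 8.0, 10 mM MgCl2, 1 mM DTT, 1.1% DMSO at 27 °C, monitored photometrically.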

lettuce seeds = test: Lettuce leaf assay; assay type: in vivo; parameters: key: 0 (no effect); 5(complete inhibition or bleaching); conditions: ranking 0-5
In short: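 Qualitative assay: compounds in volatile organic solvent applied to filter paper in a petri dish, solvent evaporated, lettuce seeds and 5 mL water added to give test concentrations. Germination, root development and leaf bleaching scored days 3 and 4, ranked 0 (no effect) to 5 (complete inhibition or bleaching).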

[6] = system: Corynebacterium pseudodiphtheriae; test: Antibacterial preliminary screening CP; assay type: cell-based; conditions: score 0-3;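 also: 0 is no inhibition and 3 matches the commercial antibiotic control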
Mycobacterium smegmatis = test: Antibacterial preliminary screening MS; assay type: cell-based; conditions: score 0-3; also: key: 0 represents no inhibition; 3 is comparable to commercial antibiotic control
Pseudomonas aeruginosa = test: Antibacterial preliminary screening PA; assay type: cell-based; conditions: score 0-3; also: key: 0 represents no inhibition; 3 is comparable to commercial antibiotic control
[7] = molecular target: Mycobacterium paratuberculosis IspD (MpIspD) (Mycolicibacterium paratuberculosis, UniProt Q743W5); test: Thermal shift assay against MpIspD; assay type: binding; conditions: MpIspD
Mycobacterium paratuberculosis IspD (MpIspD), sequence (Q743W5 whole entry): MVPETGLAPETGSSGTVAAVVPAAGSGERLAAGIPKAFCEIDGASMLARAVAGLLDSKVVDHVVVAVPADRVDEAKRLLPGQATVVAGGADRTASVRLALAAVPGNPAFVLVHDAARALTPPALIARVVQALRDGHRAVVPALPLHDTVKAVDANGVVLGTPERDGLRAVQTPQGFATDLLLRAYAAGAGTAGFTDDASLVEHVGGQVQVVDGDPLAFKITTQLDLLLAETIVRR

Bt IspD = Bt IspD (Burkholderia thailandensis, UniProt Q2SWT6); assay type: binding
Bt IspD, sequence (Q2SWT6 whole entry): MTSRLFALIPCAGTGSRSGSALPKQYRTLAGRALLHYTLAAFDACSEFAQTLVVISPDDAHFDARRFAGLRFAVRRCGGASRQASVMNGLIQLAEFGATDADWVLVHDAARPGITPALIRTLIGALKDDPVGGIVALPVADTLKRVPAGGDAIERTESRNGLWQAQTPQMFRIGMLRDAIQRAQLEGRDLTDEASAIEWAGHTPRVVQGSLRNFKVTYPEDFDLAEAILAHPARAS
Protocol: ITC studies were performed with a Microcal VP-ITC titration calorimeter (Malvern Instruments). Proteins were dialyzed overnight against four liters of buffer (20 mM sodium phosphate, 150 mM NaCl, pH 7.4). Compounds were dissolved in DMSO and brought to concentration with the dialysis buffer, with a maximum DMSO concentration of 10% by volume, and centrifuged at 10,000 RPM for 10 minutes. DMSO concentrations were matched between the protein and ligand. The dialysis buffer was used for all sample dilutions to ensure buffers matching between the titrant and titrate, thus minimizing the excess heat due to buffer mismatch. The Pace method was utilized for the determination of the extinction coefficients at 280 nm for Ec IspD (30,940 M^−1 cm^−1) and Bt IspD (41,940 M^−1 cm^−1). Cytidine triphosphate's extinction coefficient was 9,100 M^−1 cm^−1. The absorbance values of protein and CTP solutions were determined using the NanoDrop (in triplicate). All other compound concentrations were determined by dry weight. ITC experiments were performed with IspD in the cell and ligand in the syringe, which is at 100 times the concentration of the sample in the cell due to the low predicted affinities for IspD.
The initial injection volume was 2 μL (omitted) followed by 27 10 μL injections, every 240 seconds. Samples were run at 25° C., at pH 7.4, with a stirring speed of 307 RPM. Dilution runs were performed to allow determination of background heats caused by solution mismatch and instrument noise. Dilution runs were performed with ligand (at the same concentration as in the experiment run) in the syringe titrated into the dialysis buffer in the cell. Data were fit using OriginPro 7 with the ITC add-on by the manufacturer.
ITC studies were performed to observe the dissociation constant along with thermodynamic properties of the reactant CTP with Bt IspD.

With `C[CH2][Hg][Cl]` [ethyl mercuric chloride] the “effect on thermal stability of Ec IspD” value (Ec IspD [1]) was “affected the stability of the enzyme”.
In the case of `C[CH2][Hg][S]c1ccccc1C(=O)[O-].[Na+]` [thimerosal, reference compound], the “change in the observed melting temperature of Ec IspD” value (“change … of Ec IspD” for short) (Ec IspD [1]) is reported as “+3.53 °C” and the IC50 (Ec IspD [2]; EnzChek assay, read-out: Ec IspD IC50) is reported as 381 ± 12 µM.
`O=C(/C=C/c1ccc(O)cc1)c1ccc(O)cc1O` [isoliquiritigenin] showed an IC50 (Ec IspD [2]) of 279 ± 12 µM.
With `[O-][n+]1ccccc1S` [2-mercaptopyradine-N-oxide, 2-mercaptopyridine-N-oxide] the “effect on thermal stability of Ec IspD” value (Ec IspD [1]) was “did not have an effect on the thermal stability”.
In the case of `CC(=O)[O-].CC(=O)[O-].[Cd+2]` [cadmium acetate], the “change … of Ec IspD” value (Ec IspD [1]) is reported as −13.53 °C.
Work on `FC(F)(F)c1ccc(-c2nnc(-c3cc4ccccc4[nH]3)o2)cc1` [HGN-214, 2-(1H-indol-2-yl)-5-(4-(trifluoromethyl)phenyl)-1,3,4-oxadiazole] yielded an IC50 (LeIspE) of 0.269 ± 0.023 mM, an ML score (Micrococcus luteus) of 0 and a melting point of 258 to 260 °C. The IC50 (P. falciparum IspD) was ~100 µM, the MtIspD melting temp [3] was 49.8 °C and the KP score (Klebsiella pneumonia) was 0. For the same compound, the “inhibition of E. coli IspD activity” value (E. coli IspD) was “some activity”, the CX score (Corynebacterium xerosis) was 0 and the “LeIspE melting point change” value [4] was −1.00 °C. The LeIspE melting temp [4] was 48.50 °C, the BC score (Bacillus cereus) was 0 and the IC50 (AtIspF) was > 1 mM. The BT score [5] was 0, the EC score (Escherichia coli) was 0 and the IC50 (AtIspD) was > 1 mM. For the same compound, the Bleaching (lettuce seeds; 0.2 mM) was 0, the Germination (lettuce seeds; 0.2 mM) was 0 and the “Root Dev.” value (lettuce seeds; 0.2 mM) was 0. The Bleaching (lettuce seeds; 0.5 mM) was 0, the Germination (lettuce seeds; 0.5 mM) was 1 and the “Root Dev.” value (lettuce seeds; 0.5 mM) was 0. For the same compound, the Bleaching (lettuce seeds; 1.0 mM) was 0, the Germination (lettuce seeds; 1.0 mM) was 3 and the “Root Dev.” value (lettuce seeds; 1.0 mM) was 0. The CP score [6] was 0, the MS score (Mycobacterium smegmatis) was 0 and the PA score (Pseudomonas aeruginosa) was 0.
In the case of `CC(C)c1cc2c(c(O)c1O)[C@@]1(C(=O)O)CCCC(C)(C)[C@@H]1CC2` [carnosic acid], the IC50 (Ec IspD [2]) is reported as 794 ± 100 µM.
With `FC(F)(F)c1nnc(-c2cc3ccccc3[nH]2)o1` [HGN-211, 2-(1H-indol-2-yl)-5-(trifluoromethyl)-1,3,4-oxadiazole] the IC50 (LeIspE) was > 1 mM, the ML score (Micrococcus luteus) was 0 and the melting point was 182 to 184 °C. The “MtIspD melting point change” value [3] was 1.3 °C, the MtIspD melting temp [3] was 49.3 °C and the “increase in melting point over HGN-207” value [7] was 0.3 °C. For the same compound, the KP score (Klebsiella pneumonia) was 0, the CX score (Corynebacterium xerosis) was 0 and the “LeIspE melting point change” value [4] was −0.75 °C. The LeIspE melting temp [4] was 48.75 °C, the BC score (Bacillus cereus) was 0 and the IC50 (AtIspF) was > 1 mM. The BT score [5] was 0, the EC score (Escherichia coli) was 0 and the IC50 (AtIspD) was > 1 mM. For the same compound, the Bleaching (lettuce seeds; 0.5 mM) was 0, the Germination (lettuce seeds; 0.5 mM) was 1 and the “Root Dev.” value (lettuce seeds; 0.5 mM) was 0. For the same compound, the Bleaching (lettuce seeds; 1.0 mM) was 0, the Germination (lettuce seeds; 1.0 mM) was 2 and the “Root Dev.” value (lettuce seeds; 1.0 mM) was 0. The CP score [6] was 0, the MS score (Mycobacterium smegmatis) was 0 and the PA score (Pseudomonas aeruginosa) was 0.
For `Nc1ccn([C@@H]2O[C@H](COP(=O)(O)OP(=O)(O)OP(=O)(O)O)[C@@H](O)[C@H]2O)c(=O)n1` [CTP, Cytidine triphosphate], the “KD app (ITC, words)” value (Bt IspD) was “in the millimolar range”, the “entropic contribution −TΔS (ITC)” value (Bt IspD) was 5.6±1.838 and the “ΔH° (ITC)” value (Bt IspD; stoichiometry fixed at two CTPs per dimer) was -6.991 ± 1.749 kcal/mol.
For `[O-][n+]1ccccc1[S][Zn][S]c1cccc[n+]1[O-]` [Zinc Pyrathione], the “change … of Ec IspD” value (Ec IspD [1]) was −7.72 °C.
For `c1ccc2[nH]c(-c3nnc(C4CCCC4)o3)cc2c1` [HGN-252, 2-cyclopentyl-5-(1H-indol-2-yl)-1,3,4-oxadiazole], the IC50 (LeIspE) was > 1 mM, the ML score (Micrococcus luteus) was 0 and the melting point was 150 to 154 °C. For the same compound, the MtIspD melting temp [3] was 49.5 °C, the KP score (Klebsiella pneumonia) was 0 and the “inhibition of E. coli IspD activity” value (E. coli IspD) was “significant activity”. The CX score (Corynebacterium xerosis) was 0, the “LeIspE melting point change” value [4] was −2.50 °C and the LeIspE melting temp [4] was 47.00 °C. For the same compound, the BC score (Bacillus cereus) was 0, the IC50 (AtIspF) was > 1 mM and the BT score [5] was 0. For the same compound, the EC score (Escherichia coli) was 0, the IC50 (AtIspD) was > 1 mM and the Bleaching (lettuce seeds; 0.5 mM) was 0. The Germination (lettuce seeds; 0.5 mM) was 1, the “Root Dev.” value (lettuce seeds; 0.5 mM) was 0 and the Bleaching (lettuce seeds; 1.0 mM) was 0. The Germination (lettuce seeds; 1.0 mM) was 2, the “Root Dev.” value (lettuce seeds; 1.0 mM) was 0 and the CP score [6] was 0. It also gave an MS score (Mycobacterium smegmatis) of 0 and a PA score (Pseudomonas aeruginosa) of 0.
With `c1ccc(Cc2nnc(-c3cc4ccccc4[nH]3)o2)cc1` [HGN-221, 2-benzyl-5-(1H-indol-2-yl)-1,3,4-oxadiazole] the IC50 (LeIspE) was > 1 mM, the ML score (Micrococcus luteus) was 0 and the melting point was 211 to 215 °C. For the same compound, the “MtIspD melting point change” value [3] was 0.5 °C, the MtIspD melting temp [3] was 48.5 °C and the KP score (Klebsiella pneumonia) was 0. For the same compound, the CX score (Corynebacterium xerosis) was 0, the “LeIspE melting point change” value [4] was 0.00 °C and the LeIspE melting temp [4] was 49.50 °C. For the same compound, the BC score (Bacillus cereus) was 0, the IC50 (AtIspF) was > 1 mM and the BT score [5] was 0. The EC score (Escherichia coli) was 0, the IC50 (AtIspD) was 0.636 ± 0.068 mM and the Bleaching (lettuce seeds; 0.15 mM) was 0. For the same compound, the Germination (lettuce seeds; 0.15 mM) was 0, the “Root Dev.” value (lettuce seeds; 0.15 mM) was 0 and the Bleaching (lettuce seeds; 0.3 mM) was 0. The Germination (lettuce seeds; 0.3 mM) was 0, the “Root Dev.” value (lettuce seeds; 0.3 mM) was 0 and the CP score [6] was 0. The MS score (Mycobacterium smegmatis) was 0 and the PA score (Pseudomonas aeruginosa) was 0.
